Laboratory results reported in article PMC9475448, “What a difference a methylene makes: replacing Glu with Asp or Aad in the Lys-urea-Glu pharmacophore of PSMA-targeting radioligands to reduce kidney and salivary gland uptake” (Theranostics, 2022).

What was measured:
[1] = system: LNCaP tumor-bearing mice; assay: Ex vivo biodistribution of 177Lu-labeled ligands in LNCaP tumor-bearing NRG mice
[2] = system: LNCaP tumor and major mouse organs/tissues; assay: Radiation dosimetry calculation with OLINDA software from biodistribution data; details: 25-g mouse
Source text: The biodistribution data (available in the Supplemental Table s 5- 6) were used to determine the kinetics input values required by OLINDA. First, each of the values was decayed to its corresponding time point (the values on the table are shown at injection time). Then the different time-points of the uptake data (%IA/g) for each organ were fitted to both mono- exponential ( ) and bi-exponential ( ) functions using in-house software developed in Python. The best fit was selected based on maximizing the coefficient of determination (R2) of the fit and minimizing the residuals. The areas under the curves were analytically calculated based on the parameters obtained from the best fit of each organ and this provided the kinetic input values required by OLINDA.
In the mouse case, the adrenals, blood, fat, and muscle are not modeled in the phantom. These organs were grouped together and included in what OLINDA calls the remainder of the body .
Lastly, the numbers of decays in the tumors were also calculated based on the biodistribution data of the mice and the values were inputted into the sphere model available in OLINDA.

[3] = system: LNCaP tumor-bearing mice; assay: Longitudinal SPECT/CT imaging of 177Lu-labeled ligands; format: in vivo
Description: SPECT/CT imaging experiments were conducted using the MILabs (Utrecht, The Netherlands) U-SPECT-II/CT scanner. Each tumor-bearing mouse (n = 1-2 was injected with ∼37 MBq (50-250 pmol) of ^177Lu-labeled compound through a lateral caudal tail vein. The mice were imaged at 1, 4, 24, 72, and 120 h after injection. At each time point, a 5-min CT scan was conducted first for anatomical reference followed by 2 × 30-min static emission scans acquired in list mode.

[4] = system: LNCaP tumor-bearing mice; assay: Radioligand therapy study in LNCaP tumor-bearing NRG mice; details: 37 MBq injected

In the case of [^177Lu]Lu-PSMA-617, the Tumor uptake ([1]; 24 h post-injection) is reported as 13.18 ± 3.151 %IA/g, the “Tumor:Blood uptake ratio” value ([1]; 24 h post-injection) is reported as 4045 ± 1693 and the “Tumor:Kidney uptake ratio” value ([1]; 24 h post-injection) is reported as 21.6 ± 8.83. For the same substance, the “Tumor:Muscle uptake ratio” value ([1]; 24 h post-injection) was 2905 ± 453, the “Tumor:Salivary gland uptake ratio” value ([1]; 24 h post-injection) was 371 ± 129 and the Adrenal glands uptake ([1]; 72 h post-injection) was 0.007 ± 0.004 %IA/g. The Blood uptake ([1]; 72 h post-injection) was 0.002 ± 0.001 %IA/g, the “Blood:Salivary gland uptake ratio” value ([1]; 72 h post-injection) was 0.19 ± 0.08 and the Bone uptake ([1]; 72 h post-injection) was 0.006 ± 0.003 %IA/g. It also gave a Brain uptake ([1]; 72 h post-injection) of 0.008 ± 0.002 %IA/g, a Fat uptake ([1]; 72 h post-injection) of 0.006 ± 0.012 %IA/g and a Heart uptake ([1]; 72 h post-injection) of 0.004 ± 0.001 %IA/g. The Intestines uptake ([1]; 72 h post-injection) was 0.062 ± 0.080 %IA/g, the Kidneys uptake ([1]; 72 h post-injection) was 0.181 ± 0.046 %IA/g and the Lacrimal glands uptake ([1]; 72 h post-injection) was 0.023 ± 0.009 %IA/g. For the same substance, the Liver uptake ([1]; 72 h post-injection) was 0.021 ± 0.004 %IA/g, the Lungs uptake ([1]; 72 h post-injection) was 0.011 ± 0.002 %IA/g and the Muscle uptake ([1]; 72 h post-injection) was 0.004 ± 0.004 %IA/g. For the same substance, the Pancreas uptake ([1]; 72 h post-injection) was 0.003 ± 0.001 %IA/g, the Salivary glands uptake ([1]; 72 h post-injection) was 0.012 ± 0.003 %IA/g and the Spleen uptake ([1]; 72 h post-injection) was 0.016 ± 0.005 %IA/g. It also gave a Stomach uptake ([1]; 72 h post-injection) of 0.096 ± 0.155 %IA/g, a Testes uptake ([1]; 72 h post-injection) of 0.014 ± 0.012 %IA/g and a Thyroid uptake ([1]; 72 h post-injection) of 0.009 ± 0.002 %IA/g. The Tumor uptake ([1]; 72 h post-injection) was 11.0±2.12 %IA/g, the “Tumor:Blood uptake ratio” value ([1]; 72 h post-injection) was 5784 ± 1756 and the “Tumor:Kidney uptake ratio” value ([1]; 72 h post-injection) was 62.4 ± 11.1. The “Tumor:Muscle uptake ratio” value ([1]; 72 h post-injection) was 4712 ± 3587, the “Tumor:Salivary gland uptake ratio” value ([1]; 72 h post-injection) was 969 ± 241 and the Tumor uptake ([1]; 72 h post-injection, listed as [177Lu]Lu-PSMA-617) was 10.97 ± 2.122 %IA/g. For the same substance, the Adrenal glands uptake ([1]; 120 h post-injection) was 0.005 ± 0.008 %IA/g, the Blood uptake ([1]; 120 h post-injection) was 0.002 ± 0.001 %IA/g and the “Blood:Salivary gland uptake ratio” value ([1]; 120 h post-injection) was 0.42 ± 0.19. The Bone uptake ([1]; 120 h post-injection) was 0.003 ± 0.004 %IA/g, the Brain uptake ([1]; 120 h post-injection) was 0.007 ± 0.001 %IA/g and the Fat uptake ([1]; 120 h post-injection) was 0.002 ± 0.001 %IA/g. The Heart uptake ([1]; 120 h post-injection) was 0.002 ± 0.001 %IA/g, the Intestines uptake ([1]; 120 h post-injection) was 0.012 ± 0.011 %IA/g and the Kidneys uptake ([1]; 120 h post-injection) was 0.111 ± 0.054 %IA/g. The Lacrimal glands uptake ([1]; 120 h post-injection) was 0.021 ± 0.010 %IA/g, the Liver uptake ([1]; 120 h post-injection) was 0.016 ± 0.004 %IA/g and the Lungs uptake ([1]; 120 h post-injection) was 0.006 ± 0.001 %IA/g. The Muscle uptake ([1]; 120 h post-injection) was 0.002 ± 0.002 %IA/g, the Pancreas uptake ([1]; 120 h post-injection) was 0.001 ± 0.001 %IA/g and the Salivary glands uptake ([1]; 120 h post-injection) was 0.005 ± 0.002 %IA/g. For the same substance, the Spleen uptake ([1]; 120 h post-injection) was 0.013 ± 0.004 %IA/g, the Stomach uptake ([1]; 120 h post-injection) was 0.013 ± 0.013 %IA/g and the Testes uptake ([1]; 120 h post-injection) was 0.006 ± 0.002 %IA/g. The Thyroid uptake ([1]; 120 h post-injection) was 0.005 ± 0.001 %IA/g, the Tumor uptake ([1]; 120 h post-injection) was 12.3±5.52 %IA/g and the “Tumor:Blood uptake ratio” value ([1]; 120 h post-injection) was 8895 ± 4881. The “Tumor:Kidney uptake ratio” value ([1]; 120 h post-injection) was 126 ± 76.0, the “Tumor:Muscle uptake ratio” value ([1]; 120 h post-injection) was 11627 ± 7865 and the “Tumor:Salivary gland uptake ratio” value ([1]; 120 h post-injection) was 3324 ± 2257. The Tumor uptake ([1]; 120 h post-injection, listed as [177Lu]Lu-PSMA-617) was 12.25 ± 5.519 %IA/g, the Kinetics value ([2]; source organ Brain) was 6.64E-03 MBq-h/MBq and the Kinetics value ([2]; source organ Cortical bone) was 8.28E-03 MBq-h/MBq. It also gave a Kinetics value ([2]; source organ Heart contents) of 3.28E-03 MBq-h/MBq, a Kinetics value ([2]; source organ Kidneys) of 8.23E-01 MBq-h/MBq and a Kinetics value ([2]; source organ Large intestine) of 8.80E-03 MBq-h/MBq. For the same substance, the Kinetics value ([2]; source organ Liver) was 6.38E-02 MBq-h/MBq, the Kinetics value ([2]; source organ Lungs) was 4.85E-03 MBq-h/MBq and the Kinetics value ([2]; source organ Pancreas) was 4.76E-03 MBq-h/MBq. It also gave a Kinetics value ([2]; source organ Remainder of the body) of 1.68E-01 MBq-h/MBq, a Kinetics value ([2]; source organ Small intestine) of 2.63E-02 MBq-h/MBq and a Kinetics value ([2]; source organ Spleen) of 1.41E-02 MBq-h/MBq. For the same substance, the Kinetics value ([2]; source organ Stomach) was 2.34E-04 MBq-h/MBq, the Kinetics value ([2]; source organ Testes) was 4.23E-03 MBq-h/MBq and the Kinetics value ([2]; source organ Thyroid) was 4.01E-04 MBq-h/MBq. The Kinetics value ([2]; source organ Urinary bladder contents) was 8.04E-01 MBq-h/MBq, the “Excretion pathway (SPECT imaging)” value ([3]; mouse, in vivo) was “excreted mainly via the renal pathway” and the “Tumor size change in SPECT/CT images” value ([3]; ~37 MBq injected) was “tumors shrank from Day 1 to Day 5”. It also gave a Median survival [4] of 63 days.
